Here are results for 9 molecules from US20110251085A1, “IN VITRO METHOD TO DETERMINE WHETHER A DRUG CANDIDATE ACTIVE AGAINST A TARGET PROTEIN IS ACTIVE AGAINST A VARIANT OF SAID PROTEIN” (VIVALIS, priority 2008, published 2011).

One assay concerns ER. Description: Yeast two-hybrid spot test, control clone ER + 3D-sensor No 30-2. The assay is classed as cell-based. The text has this: (a) Isolation of peptides interacting with the NS5BΔ21 in the yeast two-hybrid-system. Yeast cells carrying the bait (NS5BΔ21-LexA) were transformed with the prey represented by a library of random peptides (in frame with the viral VP16 activation domain). Colonies growing on selective medium and staining blue allowed the isolation of individual peptides that would specifically interact with the polymerase. (b) Isolation of conformation sensitive peptides. The interacting peptides were then tested in presence of ligands known to induce conformational changes in the bait NS5B. The “3D-sensors” were thus identified as the ones whose binding to the target polymerase was prevented by known anti-NS5B. The corresponding colonies didn't show any expression of the selection or reporter gene. (c) Characterization of NS5BΔ21 “3D-sensors” in a spot test. Here were represented 2 selected yeast colonies: one carrying the ER and its specific peptide called No 30-2 isolated previously and used as a control, the other carrying the NS5BΔ21 and its specific peptide called N21C272. Both clones were spotted on selective medium lacking histidine, leucine and tryptophane, supplemented or not with polymerase ligands and overlayed with an X-Gal staining The NS5BΔ21+N21C272 clone grew on selective medium in the absence of any NS5B ligand and stained positive for LacZ. […]

The target in another assay is T1, NS5BΔ21 (Hepatitis C virus genotype 1b, UniProt P26662).
T1 construct: lexA/truncated HCV polymerase lacking the C-terminal 21 amino-acids fusion protein as a bait; expressed in transfected cells; host or cells: Saccharomyces cerevisiae L40, plasmid pVVS468
The assay is classed as cell-based, HCV genotype 1b. The following applies: selective medium lacking histidine, leucine and tryptophane, supplemented with ligand, X-Gal overlay.

Another assay addresses T2, native NS5BΔ21 (Hepatitis C virus genotype 1b, UniProt P26662).
T2 construct: expressed in transfected cells; host or cells: Hela cells, plasmid pVVS478
Description: 3D-Screen-NS5B platform, luciferase reporter, Hela cells, native NS5BΔ21. Format: cell-based, HCV genotype 1b. The following applies: HeLa, 24 hours; for inhibition at 10 µM: 10 uM final concentration, 3D-sensor N21C272, versus DMSO. The protocol: Transfections were performed for 2 hours in 100 mm dishes in 2 to 4 million cells with 5 to 20 ug of total DNA complexed to jetPEI (PolyPLus transfection, Illkirch, France) with a N/P ratio of 8 The optimal ratio between the plasmids encoding for the luciferase reporter, the target and the selected 3Dsensor was: 3 ug/1 ug/0.5 ug. Cells were dissociated and 25000 cells per well were seeded in 96 well culture treated plates (BD Biosciences, Erembodegem, Belgium).
Compound library's plates were thawed at room temperature. Drugs were handled by a Genesis workstation (Tecan, Lyon, France) and added to the cells at a 5 uM (in 0.5% DMSO) final concentration. Screening was performed by runs of twenty plates. Hits were identified by measurement of the luciferase activity.
Cell culture supernatant was discarded and 100 ul of Lysis buffer were added to each well. Following […] of vigorous shaking, the lysate was transferred to white opaque 96 well-plates and 100 ul of Luciferin buffer were added. Chemi-luminescence measurement was performed immediately using a Microlumat LB96 luminometer (Berthold, Thoiry, France) with 1 or 10 sec integration time.
Selected hits were synthesized and tested at concentrations varying between 0.01 uM and 100 uM final concentration so as to determine their IC50 on 3 independent experiments.
3D-sensors confirmed in yeast were further investigated in human cells. Among the reasons of choosing Hela cells figured their wide use, easiness of manipulation and capacity of replicating subgenomic HCV replicons (Zhu et al., 2003; Kato et al., 2005).
To validate whether drug's action on our system was stokiometric or not, Hela cells were transiently transfected with three expression plasmids encoding the reporter gene luciferase, the target protein and the conformation sensitive peptide N21C272. After incubation with increasing amounts of reference drugs cVVS-023476 or cVVS-023477, luciferase expression was measured.
For orientation: In a reporter assay the amount or activity of a reporter protein is the signal.

For a further assay, the target named is T3, native NS4A-NS3 protease (Hepatitis C virus genotype 1b, UniProt P26662, I1158V/V1140I).
T3 construct: the NS3 protease (residues 3-181); expressed in transfected cells; host or cells: Hela cells
Description: 3D-Screen NS4A-NS3 protease platform, luciferase reporter, Hela cells, native. The note with it: HeLa; 2 uM final concentration, 3D-sensor V7-62. Format: cell-based, HCV genotype 1b.

Assay [1] deals with T4, native NS4A-NS3 full length protein (Hepatitis C virus genotype 1b, UniProt P26662). Description: 3D-Screen NS4A-NS3 full length platform, luciferase reporter, Hela cells, native. Format: cell-based, HCV genotype 1b. The arrangement: the GSGS linker and the NS3 protease (residues 3-631); expressed in transfected cells. The note with it: HeLa; 2 uM final concentration, 3D-sensor H5-34.
Description: (§3) Cell culture supernatant was discarded and 100 ul of Lysis buffer were added to each well. Following 10 nm of vigorous shaking, the lysate was transferred to white opaque 96 well-plates and 100 ul of Luciferin buffer were added. Chemi-luminescence measurement was performed immediately using a Microlumat LB96 luminometer (Berthold, Thoiry, France) with 1 or 10 sec integration time.

Assay [2] addresses T5, NS4A-NS3 full length protein A156V (Hepatitis C virus genotype 1b, UniProt P26662, A1182V).
T5 construct: the GSGS linker and the NS3 protease (residues 3-631); expressed in transfected cells; host or cells: Huh7 hepatoma cells
Description: 3D-Screen NS4A-NS3 full length mutant profiling platform, Huh7 cells, A156V. Format: cell-based, HCV genotype 1b. The protocol: (§1) Hela cells (ATCC, Molsheim, France) were maintained in EMEM (Minimum Essential Medium Eagle with Earle's Balanced Salt solution without L-Glutamine; Biowhittaker/Cambrex, East Rutherford, N.J., USA) supplemented with 10% FBS (JRH), 2 mM Glutamine (Biowhittaker/Cambrex), 1% Non-essential Amino acids (Biowhittaker/Cambrex), 100 units/ml Penicillin and 100 ug/ml Streptomycin. Cells were kept in a humidified 5% CO2 atmosphere at 37° C. and dissociated using Trypsine-EDTA (1×) when reaching 80-90% confluence. Huh-7 hepatoma derived cells (Nakabayashi H et al, 1982) were maintained in half volume of DMEM (Dulbecco's […] Medium without L-Glutamine; Lonza, Basel, Switzerland) and half volume of Ham's F12 medium (Lonza, Basel, Switzerland) supplemented with 10% FBS (SAFC, USA), 1 mM Glutamine (Lonza, Basel, Switzerland), 0.5 mM Sodium pyruvate (Lonza, Basel, Switzerland), 100 units/ml Penicillin and 100 ug/ml Streptomycin. Cells were kept in a humidified 5% CO2 atmosphere at 37° C. and dissociated using Trypsine-EDTA (1×) when reaching 80-90% confluence. […]
(§2) Cell culture supernatant was discarded and 100 ul of Lysis buffer were added to each well. […] Chemi-luminescence measurement was performed immediately using a Microlumat LB96 luminometer (Berthold, Thoiry, France) with 1 or 10 sec integration time.

Assay [3] deals with T6, NS4A-NS3 full length protein D168V (Hepatitis C virus genotype 1b, UniProt P26662, D1194V).
T6 construct: the GSGS linker and the NS3 protease (residues 3-631); expressed in transfected cells; host or cells: Huh7 hepatoma cells
Description: 3D-Screen NS4A-NS3 full length mutant profiling platform, Huh7 cells, D168V. Format: cell-based, HCV genotype 1b. The protocol: as §1, §2

A further assay concerns protease. The following applies: described in Lamarre et al, 2003; cited from earlier work.
Assay [4] addresses T4, native NS4A-NS3 full length protein. Description: 3D-Screen NS4A-NS3 full length mutant profiling platform, Huh7 cells, 3D-sensor VF-9A11, native. Format: cell-based, HCV genotype 1b. Further details: the GSGS linker and the NS3 protease (residues 3-631); expressed in transfected cells; host or cells: Huh7 hepatoma cells. The protocol:
as §1, §2

Assay [5] deals with single chain NS4A-NS3 full length R109K mutant fused to Gal4 DBD (yeast; hepatitis C virus genotype 1b), P26662. Description: cell-based or functional assay.
Assay [6] has as its target single chain NS4A-NS3 full length A156T mutant fused to Gal4 DBD (yeast; hepatitis C virus genotype 1b), P26662. Description: cell-based or functional assay.
The target in assay [7] is single chain NS4A-NS3 full length A156S mutant fused to Gal4 DBD (yeast; hepatitis C virus genotype 1b), P26662. Description: cell-based or functional assay.
Assay [8] concerns the target single chain NS4A-NS3 full length protein (native) fused to the yeast Gal4 DBD (pVVS772) (yeast; hepatitis C virus genotype 1b), P26662. Description: cell-based or functional assay.
For assay [9], the target named is single chain NS4A-NS3 full length A156V mutant fused to Gal4 DBD (pVVS783) (yeast; hepatitis C virus genotype 1b), P26662. Description: cell-based or functional assay.
For assay [10], the target named is single chain NS4A-NS3 full length T54A mutant fused to Gal4 DBD (yeast; hepatitis C virus genotype 1b), P26662. Description: cell-based or functional assay.
Assay [11] addresses single chain NS4A-NS3 full length D168V mutant fused to Gal4 DBD (yeast; hepatitis C virus genotype 1b), P26662. Description: cell-based or functional assay.
The target in assay [12] is NS5BΔ21 L30R mutant fused to Gal4 DBD (pVVS475) (yeast; hepatitis C virus genotype 1b), P26662. Description: cell-based or functional assay.
Assay [13] deals with NS5BΔ21 L30S mutant fused to Gal4 DBD (pVVS474) (yeast; hepatitis C virus genotype 1b), P26662. Description: cell-based or functional assay.
[14] abbreviates: Huh7, VF-9A11, listed as cVVS-23591.

The term inhibition denotes the relative decrease from the control value, in per cent.

Entries after “also recorded” stand apart in the source; their conditions may differ. Where two headings read alike, the source gives them in different places. Bounds are passed on as bounds.

Description for native NS4A-NS3 protease: as §3
3D-sensors confirmed in yeast were further investigated in Hela cells.

With `C[C@]12CC[C@@H]3c4ccc(O)cc4CC[C@H]3[C@@H]1CC[C@@H]2O` [Estradiol], the “sensitivity of the control clone (ER + 3D sensor No 30.2 interaction) to ligand” value with ER is on record as “active”.

Consider `O=C(O)P(=O)(O)O` [Foscarnet], for which the “growth on selective medium and LacZ staining of the NS5BΔ21+N21C272 yeast clone” value on NS5BΔ21 is given as “had no effect; also recorded: didn't show any effect”. In addition, the inhibition at 10 µM against native NS5BΔ21 worked out at 11.7%.

For `O=C(O)CP(=O)(O)O` [Phosphonoacetic acid], the “growth on selective medium and LacZ staining of the NS5BΔ21+N21C272 yeast clone” value is on record as “had no effect” at NS5BΔ21 and “didn't show any effect” at NS5BΔ21 (listed as PAA). Further, on native NS5BΔ21, the inhibition at 10 µM was -2.2%.

As for `NC(=O)c1ncn([C@@H]2O[C@H](CO)[C@@H](O)[C@H]2O)n1` [Ribavirin], on native NS5BΔ21 (75 uM final concentration, 3D-sensor N21C272), the inhibition at 75 µM was 8.7%.

On to `CCC[C@H](NC(=O)[C@@H]1[C@H]2CCC[C@H]2CN1C(=O)[C@@H](NC(=O)[C@@H](NC(=O)c1cnccn1)C1CCCCC1)C(C)(C)C)C(=O)C(=O)NC1CC1` [cVVS-023518, 2-(2-{2-Cyclohexyl-2-[(pyrazine-2-carbonyl)-amino]-acetylamino}-3,3-dimethyl-butyryl)-octahydro-cyclopenta[c]pyrrole-1-carboxylic acid (1-cyclopropylaminooxalyl-butyl)-amide], for which the figures for the inhibition at 2 µM (at native NS4A-NS3 protease; in assay [1]) were 90% and 60%, respectively.

With `COc1ccc2c(O[C@@H]3C[C@H]4C(=O)N[C@]5(C(=O)O)C[C@H]5/C=C\CCCCC[C@H](NC(=O)OC5CCCC5)C(=O)N4C3)cc(-c3csc(NC(C)C)n3)nc2c1` [cVVS-023951, (1S,4R,6S,7Z,14S,18R)-14-cyclopentyloxycarbonylamino-18-[2-(2-isopropylamino-thiazol-4-yl)-7-methoxyquinolin-4-yloxy]-2,15-dioxo-3,16-diazatricyclo[14.3.0.04.6]nonadec-7-ene-4-carboxylic acid], the “resistance profile: sensitivity of the platform to the compound's inhibition” value in assay [2] (Huh7, VF-9A11) is recorded as “high resistance”; in [2] (setting [14]), “resistance in the same range as what was previously reported”; in assay [3] (Huh7, VF-9A11) it was “high resistance”; in assay [3] (setting [14]), “resistance in the same range as what was previously reported”; in assay [4] (native, Huh7, VF-9A11), “active”. Besides, the “activity on the protease” value in the assay with protease is “low nanomolar range”.

As to “VFII-N4: NS3 full length 3D-sensor peptide VNAWAWGW (SEQ ID No 65) (NS3 full length peptide sensor VFII-N4)”, the “sensitivity of the 3D-sensor to Telaprevir and Ciluprevir” value in assay [4] was “as sensitive as the 3D-Sensor VF-9A11”.

Take GTQKEAVIYPCYVPW (modifications not checked) [3D-sensor VF-9A11 fused to the VP16 activation domain]: the luciferase signal over background in assay [5], in [6], in [7], in assay [8], in assay [9] and in assay [10] was more than 3 throughout. This molecule also registered a luciferase signal over background in assay [11] of more than 3.

For DGCARCVASVQLYGD (modifications not checked) [3D-sensor N21C272 fused to the VP16 activation domain], the luciferase signal came out at 3100 RLU in assay [12] and 7640 RLU in assay [13].
